# Measurements as given in patent US20100152230A1, “HYDROXY SUBSTITUTED 1H-IMIDAZOPYRIDINES AND METHODS” (Pfizer Inc., priority 2005, published 2010).
# Where a name gives a salt, the structure may show the parent alone.
row,Structure (SMILES),melting point [°C]
1,"CCCCCc1cc2c(nc(O)n2Cc2ccccc2)c(N)n1 (as salt: salt) [Example 1, 4-Amino-1-benzyl-6-pentyl-1H-imidazo[4,5-c]pyridin-2-ol]",260 to 262
2,"CCCCCc1cc2c(nc(O)n2CCc2ccccc2)c(N)n1 [Example 2, 4-Amino-6-pentyl-1-(2-phenylethyl)-1H-imidazo[4,5-c]pyridin-2-ol]",238 to 240
3,"CCCCCc1cc2c(nc(O)n2CC(C)(C)O)c(N)n1 [Example 3, 4-Amino-1-(2-hydroxy-2-methylpropyl)-6-pentyl-1H-imidazo[4,5-c]pyridin-2-ol]",240 to 243
4,"CCCCCc1cc2c(nc(O)n2CC2CCOCC2)c(N)n1 [Example 4, 4-Amino-6-pentyl-1-(tetrahydro-2H-pyran-4-ylmethyl)-1H-imidazo[4,5-c]pyridin-2-ol]",> 250
5,"CCCCCc1cc2c(nc(O)n2Cc2cccnc2)c(N)n1 [Example 5, 4-Amino-6-pentyl-1-(pyridin-3-ylmethyl)-1H-imidazo[4,5-c]pyridin-2-ol]",243 to 245
6,CCCCCc1cc2c(nc(O)n2CCOCCCc2nccs2)c(N)n1 [Example 7],177 to 178
7,"CCCCCc1cc2c(nc(O)n2CCCNS(C)(=O)=O)c(N)n1 [Example 8, N-[3-(4-Amino-2-hydroxy-6-pentyl-1H-imidazo[4,5-c]pyridin-1-yl)propyl]methanesulfonamide]",174 to 176
8,"CCCCCc1cc2c(nc(O)n2CCCNC(C)=O)c(N)n1 [Example 10, N-[3-(4-Amino-2-hydroxy-6-pentyl-1H-imidazo[4,5-c]pyridin-1-yl)propyl]acetamide]",189 to 191
9,"CCCCCc1cc2c(nc(O)n2CC2CCNCC2)c(N)n1 [Example 11, 4-Amino-6-pentyl-1-(piperidin-4-ylmethyl)-1H-imidazo[4,5-c]pyridin-2-ol]",246 to 249
10,"CCCCCc1cc2c(nc(O)n2CC2CCN(S(C)(=O)=O)CC2)c(N)n1 [Example 12, 4-Amino-1-{[1-(methylsulfonyl)piperidin-4-yl]methyl}-6-pentyl-1H-imidazo[4,5-c]pyridin-2-ol]",228 to 231
11,"CCCCCc1cc2c(nc(O)n2CC2CCN(C(C)=O)CC2)c(N)n1 [Example 13, 1-[(1-Acetylpiperidin-4-yl)methyl]-4-amino-6-pentyl-1H-imidazo[4,5-c]pyridin-2-ol]",228 to 231
12,"CCCCCc1cc2c(nc(O)n2CC2CCN(S(=O)(=O)CC)CC2)c(N)n1 [Example 14, 4-Amino-1-{[1-(ethylsulfonyl)piperidin-4-yl]methyl}-6-pentyl-1H-imidazo[4,5-c]pyridin-2-ol]",222 to 225
13,"CCCCCc1cc2c(nc(O)n2CC2CCN(C(=O)C3CC3)CC2)c(N)n1 [Example 15, 4-Amino-1-{[1-(cyclopropylcarbonyl)piperidin-4-yl]methyl}-6-pentyl-1H-imidazo[4,5-c]pyridin-2-ol]",205 to 207
14,"CCCCCc1cc2c(nc(O)n2CCCCS(C)(=O)=O)c(N)n1 [Example 16, 4-Amino-1-[4-(methylsulfonyl)butyl]-6-pentyl-1H-imidazo[4,5-c]pyridin-2-ol]",188 to 189
15,"CCCCCc1cc2c(nc(O)n2CCS(C)(=O)=O)c(N)n1 [Example 17, 4-Amino-1-[2-(methylsulfonyl)ethyl]-6-pentyl-1H-imidazo[4,5-c]pyridin-2-ol]",223 to 225
16,"CCOCCc1cc2c(nc(O)n2CCCCS(C)(=O)=O)c(N)n1 [Example 18, 4-Amino-6-(2-ethoxyethyl)-1-[4-(methylsulfonyl)butyl]-1H-imidazo[4,5-c]pyridin-2-ol]",203 to 206
17,"Cc1nc(N)c2nc(O)n(Cc3cc(-c4ccc(F)cc4)no3)c2c1C [Example 19, 4-Amino-1-{[3-(4-fluorophenyl)isoxazol-5-yl]methyl}-6,7-dimethyl-1H-imidazo[4,5-c]pyridin-2-ol]",250
18,"Cc1cc(Cn2c(O)nc3c(N)nc(C)c(C)c32)on1 [Example 20, 4-Amino-6,7-dimethyl-1-[(3-methylisoxazol-5-yl)methyl]-1H-imidazo[4,5-c]pyridin-2-ol]",> 300
19,"CCCCCc1cc2c(nc(O)n2[C@@H](C)c2ccccc2)c(N)n1 [Example 21, 4-Amino-6-pentyl-1-[(1S)-1-phenylethyl]-1H-imidazo[4,5-c]pyridin-2-ol]",146.7 to 147.7
20,"CCCCCc1cc2c(nc(O)n2[C@H](C)c2ccccc2)c(N)n1 [Example 22, 4-Amino-6-pentyl-1-[(1R)-1-phenylethyl]-1H-imidazo[4,5-c]pyridin-2-ol]",147.1 to 148
21,"CCCCOc1cc2c(nc(O)n2Cc2ccccc2)c(N)n1 [Example 23, 4-amino-1-benzyl-6-butoxy-1H-imidazo[4,5-c]pyridin-2-ol]",205 to 208
